Assay results reported in patent US12310963B2, “Pyrazole derivatives and use thereof” (Tarapeutics Science Inc., priority 2019, dated 2025).

Experiments:
BaF3 = assay: Growth of parental BaF3 cells, Cell Titer-Glo, 72 h; format: cell-based; conditions: Mus musculus
From the text: (§1) In this example, mouse primary B cell BaF3 (purchased from ATCC, U.S.A.) was used. In addition, in this example, mouse BaF3-tel-PDGFRα (stably expressing PDGFRα kinase), mouse BaF3-tel-PDGFRβ (stably expressing PDGFRβ kinase), BaF3-P210 (stably expressing ABL kinase), BaF3-P210-T315I (stably expressing ABL-T315I kinase), BaF3-FL-BRAF-V600E (stably expressing BRAF-V600E kinase), BaF3-TEL-cKIT (stably expressing cKIT kinase), BaF3-TEL-VEGFR2 (stably expressing VEGFR2 kinase), BaF3-TEL-FGFR2 (stably expressing FGFR2 kinase) were also used. The above-mentioned cell trains were all constructed in our laboratory by the method as follows. The sequences of human BCR-ABL (P210 or P210/T315I mutated), full-length BRAF-V600E, cKIT, VEGFR2, FGFR2, PDGFRα, PDGFRβ kinase region were amplified respectively via PCR, and inserted respectively into a MSCV-Puro vector (purchased from Clontech) having a N-terminal TEL fragment and/or NPM fragment and/or TPR fragment, and stably transferred into mouse BaF3 cells by the retroviral method, and the growth factor IL-3 was removed. Eventually, cell lines which are transferred into proteins depending on PDGFRα, PDGFRβ were obtained.
(§2) In this example, solutions of the test compound at different concentrations (0.000508 μM, 0.00152 μM, 0.00457 μM, 0.0137 μM, 0.0411 μM, 0.123 μM, 0.370 μM, 1.11 μM, 3.33 μM, 10 μM) were added to the above cells. The cells were incubated for 72 hours.

[1] = tested on: BaF3-tel-PDGFRβ (stably expressing PDGFRβ kinase); assay: Growth of BaF3-tel-PDGFRβ cells, Cell Titer-Glo, 72 h; format: cell-based, mouse
From the text: as §1, §2

[2] = tested on: BaF3-tel-PDGFRα (stably expressing PDGFRα kinase); assay: Growth of BaF3-tel-PDGFRα cells, Cell Titer-Glo, 72 h; format: cell-based, mouse
From the text: as §1, §2

SMILES	GI50 (BaF3) [nM]	GI50 [1] [nM]	GI50 [2] [nM]
Cc1ccc(NC(=O)c2cccc(C(F)(F)F)n2)cc1-n1cc(-c2cnccc2OCC2CCOCC2)cn1 [Compound 13, N-(4-methyl-3-(4-(4-((tetrahydropyran-4-yl)methoxy)pyridin-3-yl)-1H-pyrazol-1-yl)phenyl)-6-(trifluoromethyl)picolinamide]	> 10000	5.5	1.6
Cc1ccc(NC(=O)c2cncc(C(F)(F)F)c2)cc1-n1cc(-c2cncc(N3CCN(C)CC3)c2)cn1 [Compound 16, N-(4-methyl-3-(4-(5-(4-methylpiperazin-1-yl)pyridin-3-yl)-1H-pyrazol-1-yl)phenyl)-5-(trifluoromethyl)nicotinamide]	> 10000	< 1.5	< 1.5
Cc1ccc(NC(=O)c2cccc(F)n2)cc1-n1cc(-c2cncc(N3CC4(COC4)C3)c2)cn1 [Compound 37, N-(3-(4-(5-(2-oxa-6-aza-spiro[3.3]hept-6-yl]pyridin-3-yl)-1H-pyrazol-1-yl)-4-methylphenyl)-6-fluoropicolinamide]	9850	< 10	< 10
CN1CCN(c2cncc(-c3cn(-c4cc(NC(=O)c5cccc(F)n5)ccc4F)nn3)c2)CC1 [Compound 29, 6-fluoro-N-(4-fluoro-3-(4-(5-(4-methylpiperazin-1-yl)pyridin-3-yl)-1H-1,2,3-triazol-1-yl)phenyl)picolinamide]	2840	< 10	< 10
Cc1ccc(NC(=O)c2cc(C(F)(F)F)ccn2)cc1-n1cc(-c2cncc(N3CCN(C)CC3)c2)nn1 [Compound 21, N-(4-methyl-3-(4-(5-(4-methylpiperazin-1-yl)pyridin-3-yl)-1H-1,2,3-triazol-1-yl)phenyl)-4-(trifluoromethyl)picolinamide]	2840	< 10	< 10
Cc1ccc(NC(=O)c2ccnc(C(F)(F)F)c2)cc1-n1cc(-c2cnccc2OCC2CCCO2)cn1 (stereo not shown) [Compound 9, N-(4-methyl-3-(4-(4-((tetrahydrofuran-2-yl)methoxy)pyridin-3-yl)-1H-pyrazol-1-yl)phenyl)-2-(trifluoromethyl)isonicotinamide]	> 10000	< 0.3	–
Cc1ccc(NC(=O)c2cccc(Cl)n2)cc1-n1cc(-c2cncc(N3CCN(C)CC3)c2)cn1 [Compound 17, 6-chloro-N-(4-methyl-3-(4-(5-(4-methylpiperazin-1-yl)pyridin-3-yl)-1H-pyrazol-1-yl)phenyl)picolinamide]	2800	< 1.5	< 1.5
Cc1ccc(NC(=O)c2cccc(Cl)n2)cc1-n1cc(-c2cncc(N3CCN(C)CC3)c2)nn1 [Compound 22, 6-chloro-N-(4-methyl-3-(4-(5-(4-methylpiperazin-1-yl)pyridin-3-yl)-1H-1,2,3-triazol-1-yl)phenyl)picolinamide]	960	< 10	< 10
Cc1ccc(NC(=O)c2ccnc(C(F)(F)F)c2)cc1-n1cc(-c2cncc(OC3COC3)c2)cn1 [Compound 7, N-(4-methyl-3-(4-(5-(oxetan-3-yloxy)pyridin-3-yl)-1H-pyrazol-1-yl)phenyl)-2-(trifluoromethyl)isonicotinamide]	> 10000	1	< 0.3
Cc1ccc(NC(=O)c2cccc(C(F)(F)F)n2)cc1-n1cc(-c2cnccc2OCC2CCCC2)cn1 [Compound 10, N-(3-(4-(4-(cyclopentylmethoxy)pyridin-3-yl)-1H-pyrazol-1-yl)-4-methylphenyl)-6-(trifluoromethyl)picolinamide]	> 10000	62	–
Cc1ccc(NC(=O)c2cccc(C(F)(F)F)n2)cc1-n1cc(-c2cncc(N3CC4(COC4)C3)c2)nn1 [Compound 38, N-(3-(4-(5-(2-oxa-6-aza-spiro[3.3]hept-6-yl]pyridin-3-yl)-1H-1,2,3-triazol-1-yl)-4-methylphenyl)-6-(trifluoromethyl)picolinamide]	> 10000	< 10	< 10
Cc1ccc(NC(=O)c2cccc(Cl)n2)cc1-n1cc(-c2cncc(N3CC4(COC4)C3)c2)cn1 [Compound 36, N-(3-(4-(5-(2-oxa-6-aza-spiro[3.3]hept-6-yl]pyridin-3-yl)-1H-pyrazol-1-yl)-4-methylphenyl)-6-chloropicolinamide]	9760	< 10	< 10
Cc1ccc(NC(=O)c2cc(C(F)(F)F)ccn2)cc1-n1cc(-c2cncc(N3CCN(C)CC3)c2)cn1 [Compound 15, N-(4-methyl-3-(4-(5-(4-methylpiperazin-1-yl)pyridin-3-yl)-1H-pyrazol-1-yl)phenyl)-4-(trifluoromethyl)picolinamide]	3900	< 1.5	< 1.5
Cc1ccc(NC(=O)c2cc(C(F)(F)F)ccn2)cc1-n1cc(-c2cncc(N3CC4(COC4)C3)c2)cn1 [Compound 35, N-(3-(4-(5-(2-oxa-6-aza-spiro[3.3]hept-6-yl]pyridin-3-yl)-1H-pyrazol-1-yl)-4-methylphenyl)-4-(trifluoromethyl)picolinamide]	5840	< 10	< 10
Cc1ccc(NC(=O)c2ccnc(C(F)(F)F)c2)cc1-n1cc(-c2cncc(N3CCN(C)CC3)c2)cn1 [Compound 2, N-(4-methyl-3-(4-(5-(4-methylpiperazin-1-yl)pyridin-3-yl)-1H-pyrazol-1-yl)phenyl)-2-(trifluoromethyl)isonicotinamide]	9290	40	2.8
Cc1ccc(NC(=O)c2ccnc(C(F)(F)F)c2)cc1-n1cc(-c2cnccc2OCCN2CCOCC2)cn1 [Compound 5, N-(4-methyl-3-(4-(4-(2-morpholinoethoxy)pyridin-3-yl)-1H-pyrazol-1-yl)phenyl)-2-(trifluoromethyl)isonicotinamide]	~10000	< 0.3	< 0.3
Cc1ccc(NC(=O)c2cncc(C(F)(F)F)c2)cc1-n1cc(-c2cncc(N3CC4(COC4)C3)c2)nn1 [Compound 40, N-(3-(4-(5-(2-oxa-6-aza-spiro[3.3]hept-6-yl]pyridin-3-yl)-1H-1,2,3-triazol-1-yl)-4-methylphenyl)-5-(trifluoromethyl)nicotinamide]	9990	< 10	< 10
Cc1ccc(NC(=O)c2cccc(C(F)(F)F)n2)cc1-n1cc(-c2cnccc2OCCN2CCOCC2)cn1 [Compound 4, N-(4-methyl-3-(4-(4-(2-morpholinoethoxy)pyridin-3-yl)-1H-pyrazol-1-yl)phenyl)-6-(trifluoromethyl)picolinamide]	~10000	3.2	< 0.3
Cc1ccc(NC(=O)c2ccnc(C(F)(F)F)c2)cc1-n1cc(-c2cncc(N3CCOCC3)c2)cn1 [Compound 12, N-(4-methyl-3-(4-(5-morpholinopyridin-3-yl)-1H-pyrazol-1-yl)phenyl)-2 (trifluoromethyl)isonicotinamide]	~10000	1	–
CN1CCN(c2cncc(-c3cn(-c4cc(NC(=O)c5cncc(C(F)(F)F)c5)ccc4F)nn3)c2)CC1 [Compound 26, N-(4-fluoro-3-(4-(5-(4-methylpiperazin-1-yl)pyridin-3-yl)-1H-1,2,3-triazol-1-yl)phenyl)-5-(trifluoromethyl)nicotinamide]	4740	< 10	< 10
Cc1ccc(NC(=O)c2cccc(C(F)(F)F)n2)cc1-n1cc(-c2cnccc2OC2COC2)cn1 [Compound 6, N-(4-methyl-3-(4-(4-(oxetan-3-yloxy)pyridin-3-yl)-1H-pyrazol-1-yl)phenyl)-6-(trifluoromethyl)picolinamide]	> 10000	1	< 0.3
Cc1ccc(NC(=O)c2ccnc(C(F)(F)F)c2)cc1-n1cc(-c2cncc(N3CCN(C)CC3)c2)nn1 [Compound 19, N-(4-methyl-3-(4-(5-(4-methylpiperazin-1-yl)pyridin-3-yl)-1H-1,2,3-triazol-1-yl)phenyl)-2-(trifluoromethyl)isonicotinamide]	> 10000	< 10	< 10
Cc1ccc(NC(=O)c2ccnc(C(F)(F)F)c2)cc1-n1cc(-c2cnccc2OCC2CCCC2)cn1 [Compound 11, N-(3-(4-(4-(cyclopentylmethoxy)pyridin-3-yl)-1H-pyrazol-1-yl)-4-methylphenyl)-2-(trifluoromethyl)isonicotinamide]	> 10000	1.1	–
Cc1ccc(NC(=O)c2cccc(C(F)(F)F)n2)cc1-n1cc(-c2cnccc2OCC2CCCO2)cn1 (stereo not shown) [Compound 8, N-(4-methyl-3-(4-(4-((tetrahydrofuran-2-yl)methoxy)pyridin-3-yl)-1H-pyrazol-1-yl)phenyl)-6-(trifluoromethyl)picolinamide]	> 10000	1.3	–
